{"source": "paper PMC4113814", "about": "“Bioactive Cembrane Derivatives from the Indian Ocean Soft Coral, Sinularia kavarattiensis” (Marine Drugs, 2014)", "test_system": "primary microglial cells", "experiment": "Microglial morphology cell count (ramified vs amoeboid) in LPS-treated cultures", "type": "cell-based, Wistar rats", "conditions": "2.5 μg/mL (7.2 μM) and 5.0 μg/mL (14.4 μM), 72 h", "experimental": "Primary microglial cell cultures were prepared from brains of newborn Wistar rats. Ethics approval for the experiments was granted by the EBIOTEC Review Board (Valter Lombardi, Iván Carrera and Lucía Fernández-Novoa; Project Identification Code: Sinularia Project October 2013; approved 30 October 2013). The neocortex of one-day-old postnatal rats was aseptically dissected out, and the meninges and blood vessels were carefully removed. Following cutting in a medium containing 20% horse serum, the suspension was filtered through a […] and transferred as a single cell suspension to culture dishes, using 5.0 mL of medium per dish. The cultures were incubated at 37 °C in an atmosphere containing 5% CO2. The culture medium consisted of Minimum Essential Medium Eagle, supplemented with L-glutamine, amino acids, vitamins, penicillin, gentamicin, sodium bicarbonate and 20% heat-inactivated horse serum. The medium was changed twice a week. After 1 week, the concentration of horse serum was reduced to 10%. After sixteen days in culture, cells were treated with 1 μg/mL of lipopolysaccharide (LPS). […] After 72 h of incubation, cells were counted, and 2.5 mL of the supernatants were collected from each well and frozen at −40 °C for cytokine analyses. […]", "note": "“Also recorded” adds a separate entry of the source.", "data": [{"compound": "C=C(C)[C@@H]1C/C=C2\\C(=O)O[C@@H](C[C@]3(C)CC(=O)[C@@H](CC(=O)C1)O3)[C@@H]2O", "note": "[Compound 2, sinuleptolide]", "values": [{"measurement": "effect on ramified (RM) and amoeboid (AM) microglial cell density", "result": "significant RM and AM mean differences; also recorded: significantly reduce the number of activated amoeboid cells"}]}]}
